According to patent US20070166251A1, “Composition and method for treating hyperpigmented skin” (LIPO CHEMICALS INC., priority 2005, published 2007):

Assays:
[1] = solubility of p-HCA in various solvents (HPLC); type: physicochemical
Experimental: Various solvents were tested for an ability to dissolve p-HCA and provide a suitable composition for topical application to efficaciously treat hyperpigmentation, e.g., to allow the HCA to permeate the surface of the skin and deposit the p-HCA at the site of melanin formation. p-HCA was added to various solvents, then sonicated for two hours at 35° C. until no further HCA was dissolved. The samples were cooled to room temperature (25° C.) and allowed to stabilize for 15 hours. The undissolved p-HCA was allowed to settle, the supernatant liquid was filtered through a 0.2 micron syringe filter. Approximately 0.08 g of this filtered material was weighed into a 25 ml volumetric flask and diluted to volume with HPLC mobile phase. Two standards were analyzed by HPLC and compared to the two samples. All samples were analyzed by HPLC on a Hypersil ODS C18 column using water, methanol, glacial acetic acid (55:45:1) as the mobile phase. The flow rate was 1 ml/min and the wavelength for detection was 270 nm.

[2] = skin penetration, Franz diffusion cells; type: in vitro ADME, human
Experimental: In another experiment, a 10% solution of p-HCA in ethoxydiglycol first was prepared. This solution was added to a skin care emulsion in a sufficient amount to provide either 0.3% or 0.1%, by weight, of p-HCA in the final composition. As a comparative example, 0.3%, by weight, of solid p-HCA was added to the same skin care emulsion. The skin care emulsion to which solid p-HCA or the p-HCA solution was added had the following formula (w/w%): • 85.35 water • 0.2 methylparaben • 0.35 xanthan gum • 5.0 butylene glycol • 4.0 sesame oil • 2.5 glyceryl stearate • 0.5 PEG-150 distearate • 1.25 neopentyl glycol dicaprylate/dicaprate • 0.6 emulsifying wax • 0.25 imidazolidinyl urea.
The skin care emulsions containing p-HCA were applied to cadaver skin. Skin penetration of p-HCA was studied using Franz diffusion cells, n=5 (Permegear, Bethlehem, Pa.). The receptor contained an isotonic phosphate buffer with 30% ethanol, and was stirred continuously at 600 rpm. Samples of dermatomed human cadaver skin (NDRA, Philadelphia) were placed on the cells and prehydrated for 1 hour prior to the experiment. One milliliter of each formulation was added to the donor compartment of each cell, which was covered tightly with PARAFIL®. Samples (300 μl) were withdrawn from the receptor compartment every hour over 8 hours, and replaced with 300 μl of fresh receptor solution. After 8 hours, the skin was removed and cut into small pieces. The skin pieces were homogenized using a Kinematica POLYTRON® homogenizer and centrifuged. The supernatant was filtered through 0.22μ filters, and the p-HCA content was quantified.
All samples were analyzed by HPLC on a Hypersil ODS C18 column using water, methanol, glacial acetic acid (55:45:1) as the mobile phase at a flow rate of 1 ml/min and detection at 270 nm. Lag time and flux were obtained from permeation profiles and skin drug content also was recorded.
This experiment was repeated using PEG-4 as the solvent for the p-HCA.
The method used to determine skin permeability was the Franz diffusion method disclosed above. […] In particular, 3.9 mcg/ml of p-HCA was found in the receptor compartment of the skin (i.e., permeated through the skin) as opposed to 16.3 mcg/ml p-HCA found within the skin.

[3] = metabolism of p-HCA in homogenized human skin; type: in vitro ADME; details: eight hours of incubation with skin enzymes, 37° C.
Experimental: First, to confirm in vivo activity of p-HCA, the metabolism of p-HCA in the skin was determined. In this test, human skin was homogenized in a PBS (phosphate-buffered saline)-ethanol solution, followed by dissolution of p-HCA. The solution was incubated at 37° C. for 8 hours. Samples were taken after 0, 4, and 8 hours, and were centrifuged. The supernatant was filtered and analyzed by HPLC. […] The amount of p-HCA that is metabolized was considered insignificant with respect to an efficacious treatment of hyperpigmentation.

[4] = clinical study of skin brightening and skin redness (chromameter readings); type: in vivo, human; details: 0.3% emulsion twice daily
Experimental: The skin brightening efficacy of p-HCA in ethoxydyglycol versus kojic acid also was tested in a clinical study. In this study, an emulsion containing 0.3%, by weight, p-HCA or kojic acid was used on twenty, mostly female, subjects between the ages of 30 to 50 years. The test composition was applied to the abdomen twice daily (a.m. and p.m.). The test was conducted for eight weeks, and chromameter readings were taken at baseline, and after 2, 4, 6, and 8 weeks.

[5] = ethoxydiglycol vs solid p-HCA, FIG. 1 and Table 1
[6] = formula: 0.5% p-HCA, 53% ethanol, Carbopol 981, glycerin, triethanolamine, water
[7] = in presence of ethoxydiglycol vs powder form

For `O=C(O)C=Cc1ccc(O)cc1` [p-HCA, p-hydroxycinnamic acid], the “solubility in 30% hydroethanolic solution” value ([1]; 30% hydroethanolic solution, 25° C.) was 0.75 wt %, the “solubility in PEG-4” value ([1]; PEG-4, 25° C.) was 18.5 wt % and the “solubility in PEG-6” value ([1]; PEG-6, 25° C.) was 19.7 wt %. The “solubility in PEG-8” value ([1]; PEG-8, 25° C.) was 19.7 wt %, the “solubility in butylene glycol” value ([1]; butylene glycol, 25° C.) was 2.25 wt % and the “solubility in diethylene glycol” value ([1]; diethylene glycol, 25° C.) was 18.1 wt %. For the same compound, the solubility in ethanol ([1]; ethanol, 25° C.) was 14.8 wt %, the solubility in ethoxydiglycol ([1]; ethoxydiglycol, 25° C.) was 19.7 %, by weight and the “solubility in glycereth-26” value ([1]; glycereth-26, 25° C.) was 7 wt %. The “solubility in pentylene glycol” value ([1]; pentylene glycol, 25° C.) was 1.75 wt %, the “solubility in silicone fluid DC 193” value ([1]; silicone fluid DC 193, 25° C.) was 4.7 wt % and the “deposition of p-HCA on the skin compared to a control” value ([2]; PEG-4 as the solvent for the p-HCA) was “significantly increased”. For the same compound, the “elevation of deposition of p-HCA in the skin” value [2, 5] was 93%, the “increase of flux into the skin” value [2, 5] was 107% and the “amount of HCA deposited in the skin relative to amount transmitted through the skin” value [2, 6] was “four times greater”. The “p-HCA found in the receptor compartment (permeated through the skin)” value [2, 6] was 3.9 µg/mL, the “p-HCA found within the skin” value [2, 6] was 16.3 µg/mL and the “change of flux of p-HCA through the skin” value [2, 7] was “doubled”. The “elevation of percent of p-HCA that permeates cadaver skin” value [2, 7] was 43%, the “elevation of percentage of p-HCA that remained within the skin” value [2, 7] was “about 50%” and the p-HCA metabolized [3] was 3.6%.
For `O=c1cc(CO)occ1O` [kojic acid], the “effect on skin redness” value ([4]; throughout the eight-week clinical trial) was “did not reduce redness” and the “effect on skin redness” value ([4]; weeks 4 and 8) was “induced redness”.
